Here are results for one compound from article PMC8079283 (The Journal of Biological Chemistry, 2021).

In this experiment the target is T1, NUDT15 (Homo sapiens, UniProt Q9NV35).
T1 sequence (Q9NV35 1-164): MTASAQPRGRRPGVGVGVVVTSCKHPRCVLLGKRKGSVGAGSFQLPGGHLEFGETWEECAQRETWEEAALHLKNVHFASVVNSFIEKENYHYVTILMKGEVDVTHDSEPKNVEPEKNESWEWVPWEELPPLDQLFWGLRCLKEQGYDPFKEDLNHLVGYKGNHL
Kind of experiment: X-ray crystal structure. It is filed as biochemical.

In the case of `C[C@@H]1CN(C(=O)c2ccc3c(ccn3C)c2)CCN1S(=O)(=O)c1ccc2[nH]c(=O)oc2c1` [compound 6, (R)-6-((2-methyl-4-(1-methyl-1H-indole-5-carbonyl)piperazin-1-yl)sulfonyl)benzo[d]oxazol-2(3H)-one], the Ki – broadly, a measure of affinity in units of concentration, obtained from inhibition or displacement – was determined as 10.2 ± 0.9 nM.
